Data on 26 compounds can be found in US7605156B2, “Methods for the use of inhibitors of cytosolic phospholipase A2” (Wyeth, priority 2001, dated 2009).

The assay addresses T1, cPLA2 (Homo sapiens, UniProt P47712).
T1 sequence (P47712 1-749): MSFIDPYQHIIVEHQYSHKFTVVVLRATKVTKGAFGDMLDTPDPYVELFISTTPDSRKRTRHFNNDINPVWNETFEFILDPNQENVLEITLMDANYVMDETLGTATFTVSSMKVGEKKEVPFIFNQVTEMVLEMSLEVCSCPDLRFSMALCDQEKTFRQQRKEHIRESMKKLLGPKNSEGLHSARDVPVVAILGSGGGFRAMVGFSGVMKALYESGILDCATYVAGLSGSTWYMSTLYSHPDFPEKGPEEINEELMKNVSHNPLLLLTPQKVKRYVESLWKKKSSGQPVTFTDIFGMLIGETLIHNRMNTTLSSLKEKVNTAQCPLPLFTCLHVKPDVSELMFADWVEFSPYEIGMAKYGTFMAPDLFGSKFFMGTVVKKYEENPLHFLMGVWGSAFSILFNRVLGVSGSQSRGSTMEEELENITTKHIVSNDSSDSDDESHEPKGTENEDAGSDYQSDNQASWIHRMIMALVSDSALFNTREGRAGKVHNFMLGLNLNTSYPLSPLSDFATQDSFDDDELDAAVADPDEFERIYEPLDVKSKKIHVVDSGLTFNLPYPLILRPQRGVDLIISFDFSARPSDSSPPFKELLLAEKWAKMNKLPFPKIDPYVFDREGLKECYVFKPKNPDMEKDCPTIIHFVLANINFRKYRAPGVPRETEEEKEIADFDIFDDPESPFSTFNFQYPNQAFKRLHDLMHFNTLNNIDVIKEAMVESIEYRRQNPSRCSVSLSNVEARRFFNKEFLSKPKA
In words: Coumarine assay (hydrolysis of 7-hydroxycoumarinyl 6-heptenoate). The conditions noted are these: 60 μM 7-hydroxycoumarinyl 6-heptenoate, pH 7.5; read-out: Coumarin IC50. It counts as biochemical.
What is called IC50 is the concentration at which inhibition is half-maximal. `Cc1c(Cl)cc(F)cc1S(=O)(=O)NCCc1c(CCCc2ccc(C(=O)O)cc2)c2cc(Cl)ccc2n1C(c1ccccc1)c1ccccc1` [Example 263, 4-{3-[1-benzhydryl-5-chloro-2-(2-{[(3-chloro-5-fluoro-2-methylphenyl)sulfonyl]amino}ethyl)-1H-indol-3-yl]propyl}benzoic acid]: the IC50 was found to be 320 nM.
Consider `O=C(O)c1ccc(OCCc2c(CCNS(=O)(=O)c3c(Cl)cc(Cl)cc3Cl)n(C(c3ccccc3)c3ccccc3)c3ccc(Cl)cc23)cc1` [Example 161, 4-{2-[1-benzhydryl-5-chloro-2-(2-{[(2,4,6-trichlorophenyl)sulfonyl]amino}ethyl)-1H-indol-3-yl]ethoxy}benzoic acid], for which the IC50 is 320 nM.
Consider `O=C(O)c1ccc(S(=O)(=O)CCc2c(CCNS(=O)(=O)c3ccccc3Cl)n(C(c3ccccc3)c3ccccc3)c3ccc(Cl)cc23)cc1` [Example 256, 4-({2-[1-benzhydryl-5-chloro-2-(2-{[(2-chlorophenyl)sulfonyl]amino}ethyl)-1H-indol-3-yl]ethyl}sulfonyl)benzoic acid], for which the IC50 amounted to 600 nM.
For `CCc1cccc(CC)c1S(=O)(=O)NCCc1c(CCCc2ccc(C(=O)O)cc2)c2cc(Cl)ccc2n1C(c1ccccc1)c1ccccc1` [Example 273, 4-{3-[1-benzhydryl-5-chloro-2-(2-{[(2,6-diethylphenyl)sulfonyl]amino}ethyl)-1H-indol-3-yl]propyl}benzoic acid] the value was 110 nM.
For `O=C(O)c1ccc(CCCc2c(CCNS(=O)(=O)c3cc(Cl)c(F)cc3F)n(C(c3ccccc3)c3ccccc3)c3ccc(Cl)cc23)cc1` [Example 166, 4-{3-[1-benzhydryl-5-chloro-2-(2-{[(5-chloro-2,4-difluorophenyl)sulfonyl]amino}ethyl)-1H-indol-3-yl]propyl}benzoic acid] the value was 400 nM.
Turning to `O=C(O)c1ccc(CCCc2c(CCNS(=O)(=O)Cc3ccc(Cl)cc3)n(C(c3ccccc3)c3ccccc3)c3ccc(Cl)cc23)cc1` [Example 60, 4-{3-[1-benzhydryl-5-chloro-2-(2-{[(4-chlorobenzyl)sulfonyl]amino}ethyl)-1H-indol-3-yl]propyl}benzoic acid], the IC50 worked out at 150 nM.
For the compound `CC(C)C1CCCN1CCS(=O)(=O)NCCc1c(CCOc2ccc(C(=O)O)cc2)c2cc(Cl)ccc2n1C(c1ccccc1)c1ccccc1` (centres unmarked) [Example 252, 4-(2-{1-benzhydryl-5-chloro-2-[2-({[2-(2-isopropylpyrrolidin-1-yl)ethyl]sulfonyl}amino)ethyl]-1H-indol-3-yl}ethoxy)benzoic acid], the IC50 came to 730 nM.
With `Cc1ccc(S(=O)(=O)NCCc2c(CCCc3ccc(C(=O)O)cc3)c3cc(Cl)ccc3n2C(c2ccccc2)c2ccccc2)cc1Cl` [Example 261, 4-{3-[1-benzhydryl-5-chloro-2-(2-([(3-chloro-4-methylphenyl)sulfonyl]amino}ethyl)-1H-indol-3-yl]propyl}benzoic acid], the 50% inhibitory concentration (IC50) amounted to 250 nM.
Take `COc1ccccc1S(=O)(=O)NCCc1c(CCCc2ccc(C(=O)O)cc2)c2cc(Cl)ccc2n1C(c1ccccc1)c1ccccc1` [Example 234, 4-{3-[1-Benzhydryl-5-chloro-2-(2-{[(2-methoxyphenyl)sulfonyl]amino}ethyl)-1H-indol-3-yl]propyl}benzoic acid]: the IC50 stood at 230 nM.
For `CC(C)(C)c1ccccc1S(=O)(=O)NCCc1c(CCOc2ccc(C(=O)O)cc2)c2cc(Cl)ccc2n1C(c1ccccc1)c1ccccc1` [Example 237, 4-{2-[1-benzhydryl-2-(2-{[(2-tert-butylphenyl)sulfonyl]amino}ethyl)-5-chloro-1H-indol-3-yl]ethoxy}benzoic acid], the IC50 was 200 nM.
As to `O=C(O)c1ccc(CCCc2c(CCNS(=O)(=O)c3c(F)cccc3F)n(C(c3ccccc3)c3ccccc3)c3ccc(Cl)cc23)cc1` [Example 224], the IC50 came to 250 nM.
As to `CC1CCN(CCS(=O)(=O)NCCc2c(CCOc3ccc(C(=O)O)cc3)c3cc(Cl)ccc3n2C(c2ccccc2)c2ccccc2)CC1` [Example 245, 4-(2-{1-benzhydryl-5-chloro-2-[2-({[2-(4-methylpiperidin-1-yl)ethyl]sulfonyl}amino)ethyl]-1H-indol-3-yl}ethoxy)benzoic acid], the IC50 came out at 900 nM.
For `O=C(O)c1ccc(OCCc2c(CCNS(=O)(=O)c3cccc(OC(F)(F)F)c3)n(C(c3ccccc3)c3ccccc3)c3ccc(Cl)cc23)cc1` [Example 198, 4-(2-{1-Benzhydryl-5-chloro-2-[2-(3-trifluoromethoxy-benzenesulfonylamino)-ethyl]-1H-indol-3-yl}-ethoxy)-benzoic acid] the value was 700 nM.
In the case of `O=C(O)c1ccc(CCCc2c(CCNS(=O)(=O)c3ccc(C(F)(F)F)cc3)n(C(c3ccccc3)c3ccccc3)c3ccc(Cl)cc23)cc1` [Example 228], the IC50 was 400 nM.
For the compound `COc1ccc(S(=O)(=O)NCCc2c(CCCc3ccc(C(=O)O)cc3)c3cc(Cl)ccc3n2C(c2ccccc2)c2ccccc2)c([N+](=O)[O-])c1` [Example 200, 4-(3-{1-Benzhydryl-5-chloro-2-[2-(4-methoxy-2-nitro-benzenesulfonylamino)-ethyl]-1H-indol-3-yl}-propyl)-benzoic acid], the IC50 is 350 nM.
For “4-{2-[1-benzhydryl-5-chloro-2-(2-{[(2,6-dimethylbenzyl)sulfonyl]amino}ethyl)-1H-indol-3-yl]ethoxy}benzoic acid [Example 279]” the value was 160 nM.
For `O=C(O)c1ccc(OCCc2c(CCNS(=O)(=O)C[S+]([O-])c3ccc(Cl)c(Cl)c3)n(C(c3ccccc3)c3ccccc3)c3ccc(Cl)cc23)cc1` (centres unmarked) [Example 289, 4-[2-(1-benzhydryl-5-chloro-2-{2-[({[(3,4-dichlorophenyl)sulfinyl]methyl}sulfonyl)amino]ethyl}-1H-indol-3-yl)ethoxy]benzoic acid] the value was 900 nM; for `Cc1c(Cl)cc(F)cc1S(=O)(=O)NCCc1c(CCOc2ccc(C(=O)O)cc2)c2cc(Cl)ccc2n1C(c1ccccc1)c1ccccc1` [Example 262, 4-{2-[1-benzhydryl-5-chloro-2-(2-{[(3-chloro-5-fluoro-2-methylphenyl)sulfonyl]amino}ethyl)-1H-indol-3-yl]ethoxy}benzoic acid], 530 nM; for `CCC1CCCCN1CCS(=O)(=O)NCCc1c(CCOc2ccc(C(=O)O)cc2)c2cc(Cl)ccc2n1C(c1ccccc1)c1ccccc1` (centres unmarked) [Example 249, 4-(2-{1-benzhydryl-5-chloro-2-[2-({[2-(2-ethylpiperidin-1-yl)ethyl]sulfonyl}amino)ethyl]-1H-indol-3-yl}ethoxy)benzoic acid], 670 nM.
As to `CC(=O)N1C(C)CN(CCS(=O)(=O)NCCc2c(CCOc3ccc(C(=O)O)cc3)c3cc(Cl)ccc3n2C(c2ccccc2)c2ccccc2)CC1C` (centres unmarked) [Example 244, 4-[2-(2-{2-[2-(4-Acetyl-3,5-dimethyl-piperazin-1-yl)-ethanesulfonylamino]-ethyl}-1-benzhydryl-5-chloro-1H-indol-3-yl)-ethoxy]-benzoic acid], the IC50 came out at 1300 nM.
For `O=C(O)c1ccc(OCCc2c(CCNS(=O)(=O)c3ccccc3OC(F)(F)F)n(C(c3ccccc3)c3ccccc3)c3ccc(Cl)cc23)cc1` [Example 231], the IC50 was 250 nM.
As for `O=C(O)c1ccc(OCCc2c(CCNS(=O)(=O)c3cccc4nonc34)n(C(c3ccccc3)c3ccccc3)c3ccc(Cl)cc23)cc1` [Example 182, 4-(2-{1-Benzhydryl-2-[2-(benzo[1,2,5]oxadiazole-4-sulfonylamino)-ethyl]-5-chloro-1H-indol-3-yl}-ethoxy)benzoic acid], the IC50 is 600 nM.
For `O=C(O)c1ccc(OCCc2c(CCNS(=O)(=O)c3ccccc3Cl)n(C(c3ccccc3)c3ccccc3)c3ccc(Cl)cc23)cc1` [Example 255, 4-{2-[1-benzhydryl-5-chloro-2-(2{[(2-chlorophenyl)sulfonyl]amino}ethyl)-1H-indol-3-yl]ethoxy}benzoic acid] the value was 500 nM; for `O=C(O)c1ccc(CCCc2c(CCNS(=O)(=O)c3ccccc3Br)n(C(c3ccccc3)c3ccccc3)c3ccc(Cl)cc23)cc1` [Example 158, 4-{3-[1-benzhydryl-2-(2-{[(2-bromophenyl)sulfonyl]amino}ethyl)-5-chloro-1H-indol-3-yl]propyl}benzoic acid], 200 nM; for `CS(=O)(=O)c1ccccc1S(=O)(=O)NCCc1c(CCCc2ccc(C(=O)O)cc2)c2cc(Cl)ccc2n1C(c1ccccc1)c1ccccc1` [Example 204, 4-(3-{1-Benzhydryl-5-chloro-2-[2({[2-(methylsulfonyl)phenyl]sulfonyl}amino)ethyl]-1H-indol-3-yl}propyl)benzoic acid], 200 nM.
For `O=C(O)c1ccc(OCCc2c(CCNS(=O)(=O)Cc3ccccc3)n(C(c3ccccc3)c3ccccc3)c3ccc(N4CCOCC4)cc23)cc1` [Example 33, 4-[2-(1-benzhydryl-2-{2-[(benzylsulfonyl)amino]ethyl}-5-morpholin-4-yl-1H-indol-′3-yl)ethoxy]benzoic acid] the value was 2900 nM.
